Assay [1] addresses T1, AHR (Homo sapiens, UniProt P35869).
T1 construct: U87 MG glioblastoma cells (ATCC #HTB-14) endogenously expressing AHR; endogenous in cells; host or cells: U87 MG glioblastoma cells (ATCC #HTB-14)
T1 sequence (P35869 11-848): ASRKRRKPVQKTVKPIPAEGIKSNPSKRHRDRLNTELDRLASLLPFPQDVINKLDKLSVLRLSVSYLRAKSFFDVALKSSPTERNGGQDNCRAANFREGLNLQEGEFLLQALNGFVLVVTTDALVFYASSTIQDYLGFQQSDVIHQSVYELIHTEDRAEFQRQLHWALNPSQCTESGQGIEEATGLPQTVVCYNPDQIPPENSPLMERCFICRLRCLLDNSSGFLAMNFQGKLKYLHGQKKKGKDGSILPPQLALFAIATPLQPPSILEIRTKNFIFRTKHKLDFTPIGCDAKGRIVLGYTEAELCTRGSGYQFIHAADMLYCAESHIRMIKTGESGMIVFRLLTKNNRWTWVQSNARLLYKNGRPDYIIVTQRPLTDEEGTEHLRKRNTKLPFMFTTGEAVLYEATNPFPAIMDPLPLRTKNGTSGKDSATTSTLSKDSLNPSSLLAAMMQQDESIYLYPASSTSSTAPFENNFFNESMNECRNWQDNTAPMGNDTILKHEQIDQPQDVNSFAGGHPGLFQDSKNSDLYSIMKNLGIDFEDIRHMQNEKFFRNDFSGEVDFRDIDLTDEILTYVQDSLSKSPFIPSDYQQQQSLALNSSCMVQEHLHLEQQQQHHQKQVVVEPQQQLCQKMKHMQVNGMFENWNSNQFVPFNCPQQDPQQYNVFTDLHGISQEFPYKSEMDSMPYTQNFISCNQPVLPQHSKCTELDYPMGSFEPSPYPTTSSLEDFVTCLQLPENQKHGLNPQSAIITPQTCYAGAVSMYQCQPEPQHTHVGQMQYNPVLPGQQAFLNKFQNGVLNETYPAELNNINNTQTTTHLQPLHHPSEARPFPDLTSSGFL
Briefly: In vitro assay 1: antagonism in human cell line (AHR transactivation, firefly luciferase reporter, kynurenic acid prestimulated). Format: cell-based. As to conditions: AHR Antagonism Human IC50 [M]. The method, boiled down:
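U87 MG glioblastoma cells with endogenous AHR, stably carrying a DRE-driven firefly luciferase reporter and constitutive Renilla reporter, prestimulated with kynurenic acid before compound addition. Firefly and Renilla read by dual luciferase; Renilla flags toxicity; normalized to controls (150 μM kynurenic acid + 5 μM staurosporine as full inhibition); repeat values averaged or median.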

Assay [2] concerns the target T2, AHR (Mus musculus, UniProt P30561).
T2 sequence (P30561 1-848 P471L/N533S/M589L): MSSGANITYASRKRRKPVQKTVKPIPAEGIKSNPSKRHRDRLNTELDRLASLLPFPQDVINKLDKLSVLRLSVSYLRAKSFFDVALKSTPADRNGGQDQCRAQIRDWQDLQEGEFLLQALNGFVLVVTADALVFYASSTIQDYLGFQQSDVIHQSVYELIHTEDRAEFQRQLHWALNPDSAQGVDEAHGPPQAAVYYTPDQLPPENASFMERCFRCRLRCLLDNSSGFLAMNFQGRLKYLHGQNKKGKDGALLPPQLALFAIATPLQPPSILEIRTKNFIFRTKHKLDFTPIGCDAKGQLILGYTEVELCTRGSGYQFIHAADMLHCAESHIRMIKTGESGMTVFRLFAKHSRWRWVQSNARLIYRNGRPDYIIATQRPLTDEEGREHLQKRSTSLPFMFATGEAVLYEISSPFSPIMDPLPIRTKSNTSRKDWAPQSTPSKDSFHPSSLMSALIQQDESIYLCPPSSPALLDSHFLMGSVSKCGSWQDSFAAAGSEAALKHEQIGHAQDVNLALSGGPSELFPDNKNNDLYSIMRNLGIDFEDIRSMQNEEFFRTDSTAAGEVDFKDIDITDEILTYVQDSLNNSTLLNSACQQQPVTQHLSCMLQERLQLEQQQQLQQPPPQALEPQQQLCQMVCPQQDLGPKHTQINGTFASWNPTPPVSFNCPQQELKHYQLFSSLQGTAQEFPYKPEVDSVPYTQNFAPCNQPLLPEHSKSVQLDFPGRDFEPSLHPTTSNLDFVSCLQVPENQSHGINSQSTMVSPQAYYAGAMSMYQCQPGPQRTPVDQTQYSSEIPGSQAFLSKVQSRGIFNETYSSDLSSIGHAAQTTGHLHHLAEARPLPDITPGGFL
In words: In vitro assay 3: antagonism in mouse cell line (AHR transactivation, firefly luciferase reporter, kynurenic acid prestimulated). It counts as cell-based. Summed up: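 Cells were first stimulated with kynurenic acid, then exposed to test compound, after which firefly luciferase from a DRE-containing AHR reporter was read out. Signal was scaled between positive and negative controls. Cells not given kynurenic acid provided the inhibition reference.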

Setting [3] is: mouse Hepa 1c1c7 cells, 200 μM kynurenic acid, 20 hours, read-out: AHR Antagonism Mouse IC50.
Where [4] appears, read: read-out: AHR Antagonism Mouse IC50, mouse Hepa 1c1c7 cells, 200 μM kynurenic acid, 20 hours.
Where [5] appears, read: Hepa 1c1c7 cells, 200 μM kynurenic acid, 20 hours, firefly luciferase reporter, read-out: AHR Antagonism Mouse IC50.

Read-outs that look alike come from different tables or passages of the source. Bounds are passed on as bounds.

21 molecules from patent US20230113037A1 (Bayer Aktiengesellschaft, priority 2019, published 2023) can be followed below.

For the molecule `CC(C)Oc1ccc(-c2nc3c4ccccc4nc(N[C@@H]4CNCCNC4=O)n3n2)cc1` [Example 415, (6R)-6-[(2-{4-[(propan-2-yl)oxy]phenyl}[1,2,4]triazolo[1,5-c]quinazolin-5-yl)amino]-1,4-diazepan-5-one], the IC50 at AHR [1] was 1.85e-08 M; at AHR [2] (setting [3]), 6.47 nM.
Consider `O=C1NCCCC[C@H]1Nc1nc2ccccc2c2nc(-c3cc(C(F)(F)F)ccn3)nn12` [Example 363, (3R)-3-({2-[4-(trifluoromethyl)pyridin-2-yl][1,2,4]triazolo[1,5-c]quinazolin-5-yl}amino)azepan-2-one], for which the results for the IC50 against AHR [1] and on AHR [2] (setting [4]) were 3.5e-08 M and 10.7 nM, respectively.
`COc1cccc(-c2nc3c4ccccc4nc(NC4CCCNC4=O)n3n2)c1` (single isomer, unassigned) [Example 119, 3-{[2-(3-methoxyphenyl)[1,2,4]triazolo[1,5-c]quinazolin-5-yl]amino}piperidin-2-one]: the figures for the IC50 against AHR [1] and on AHR [2] (setting [3]) were 7.8e-07 M and 202 nM, respectively.
Regarding `CC[C@H](Nc1nc2ccccc2c2nc(-c3ccccc3OC(F)F)nn12)C(N)=O` [Example 475, (2S)-2-({2-[2-(difluoromethoxy)phenyl][1,2,4]triazolo[1,5-c]quinazolin-5-yl}amino)butanamaide], the values for the IC50 on AHR [1] and at AHR [2] (setting [4]) were greater than 2e-05 M and 71.7 nM, respectively.
Turning to `O=C1NCCNC[C@H]1Nc1nc2ccccc2c2nc(-c3cccc(F)c3)nn12` [Example 261, (6R)-6-{[2-(3-fluorophenyl)[1,2,4]triazolo[1,5-c]quinazolin-5-yl]amino}-1,4-diazepan-5-one], the concentration for half-maximal inhibition (IC50) at AHR [1] turned out to be 7.39e-08 M; on AHR [2] (setting [3]), 46.6 nM.
`COc1cccc(-c2nc3c4ccccc4nc(N[C@H](C)C(=O)NCCO)n3n2)c1` [Example 111, N-(2-hydroxyethyl)-N^2-[2-(3-methoxyphenyl)[1,2,4]triazolo[1,5-c]quinazolin-5-yl]-D-alaninamide]: the figures for the concentration for half-maximal inhibition (IC50) against AHR [1] and at AHR [2] (setting [3]) were 1.42e-08 M and 15.8 nM, respectively.
With `COc1ccc(-c2nc3c4cccc(O)c4nc(N[C@@H]4CCCCNC4=O)n3n2)cc1` [Example 669, (3R)-3-{[7-hydroxy-2-(4-methoxyphenyl)[1,2,4]triazolo[1,5-c]quinazolin-5-yl]amino}azepan-2-one], the results for the half-maximal inhibitory concentration (IC50) against AHR [1] and on AHR [2] (setting [4]) were 1.99e-09 M and 4.96 nM, respectively.
With `Cc1cccc2c1nc(N[C@@H]1CCCCNC1=O)n1nc(-c3cnn(C)c3)nc21` [Example 142, (3R)-3-{[7-methyl-2-(1-methyl-1H-pyrazol-4-yl)[1,2,4]triazolo[1,5-c]quinazolin-5-yl]amino}azepan-2-one], the IC50 at AHR [1] stood at 2.15e-09 M; at AHR [2] (setting [3]), 21.1 nM.
The corresponding values for `COc1ccc(-c2nc3c4cccc(SC)c4nc(N[C@@H]4CCCCNC4=O)n3n2)cc1` [Example 766, (3R)-3-{[2-(4-methoxyphenyl)-7-(methylsulfanyl)[1,2,4]triazolo[1,5-c]quinazolin-5-yl]amino}azepan-2-one] are 1.64e-08 M and 47 nM.
As to `O=C1NCCCC[C@H]1Nc1nc2ccccc2c2nc(-c3ccc(Cl)cc3)nn12` [Example 6], the concentration for half-maximal inhibition (IC50) on AHR [1] was 5.93e-10 M; at AHR [2] (setting [3]) it was greater than 10000 nM.
As to `CCCNC(=O)[C@@H](CC)Nc1nc2c(Br)cccc2c2nc(-c3ccc(Cl)cc3OC(F)(F)F)nn12` [Example 812, (2R)-2-({7-bromo-2-[4-chloro-2-(trifluoromethoxy)phenyl][1,2,4]triazolo[1,5-c]quinazolin-5-yl}amino)-N-propylbutanamide], the concentration for half-maximal inhibition (IC50) against AHR [1] (firefly luciferase reporter) turned out to be 3.57e-09 M; on AHR [2] (setting [5]), 2.47 nM.
For `COc1ccc(-c2nc3c4cccc(F)c4nc(N[C@@H]4CCCCNC4=O)n3n2)cc1` [Example 138, (3R)-3-{[7-fluoro-2-(4-methoxyphenyl)[1,2,4]triazolo[1,5-c]quinazolin-5-yl]amino}azepan-2-one], the values for the IC50 on AHR [1] and at AHR [2] (setting [3]) were 7.41e-10 M and 1.45 nM, respectively.
On to `O=C1NCCNC[C@H]1Nc1nc2ccccc2c2nc(-c3ccc(Br)cc3Cl)nn12` [Example 255, (6R)-6-{[2-(4-bromo-2-chlorophenyl)[1,2,4]triazolo[1,5-c]quinazolin-5-yl]amino}-1,4-diazepan-5-one], for which the IC50 against AHR [1] is 4.98e-08 M; on AHR [2] (setting [3]) it was 5.1 nM.
For `C[C@@H](Nc1nc2c(Br)cccc2c2nc(-c3cnn(C)c3)nn12)C(=O)N1CC2(COC2)C1` [Example 917, (2R)-2-{[7-bromo-2-(1-methyl-1H-pyrazol-4-yl)[1,2,4]triazolo[1,5-c]quinazolin-5-yl]amino}-1-(2-oxa-6-azaspiro[3.3]heptan-6-yl)propan-1-one], the IC50 was 3.76e-08 M against AHR [1] (firefly luciferase reporter) and 65.6 nM on AHR [2] (read-out: AHR Antagonism Mouse IC50, Hepa 1c1c7 cells, 200 μM kynurenic acid, 20 hours, firefly luciferase reporter).
As for `COc1cccc(-c2nc3c4ccccc4nc(N[C@@H](C)C(N)=O)n3n2)c1` (single isomer, unassigned) [Example 86, N^2-[2-(3-methoxyphenyl)[1,2,4]triazolo[1,5-c]quinazolin-5-yl]alaninamide], the IC50 on AHR [1] came to 5.1e-09 M; on AHR [2] (setting [3]) it was 5.66 nM.
With `Cc1cc(-c2nc3c4ccccc4nc(N[C@@H]4CCN(C)C4=O)n3n2)cs1` [Example 355], the results for the concentration for half-maximal inhibition (IC50) on AHR [1] and on AHR [2] (setting [3]) were 3.79e-08 M and 36.6 nM, respectively.
Turning to `COc1ccc(-c2nc3c4cccc(Br)c4nc(N[C@@H](C(=O)N4CCN(C)CC4)C(C)C)n3n2)cc1` [Example 922, (2R)-2-{[7-bromo-2-(4-methoxyphenyl)[1,2,4]triazolo[1,5-c]quinazolin-5-yl]amino}-3-methyl-1-(4-methylpiperazin-1-yl)butan-1-one], the IC50 on AHR [1] (firefly luciferase reporter) was 2.47e-09 M; at AHR [2] (setting [5]), 2.03 nM.
The corresponding values for `CCSc1cccc2c1nc(N[C@@H]1CNCCNC1=O)n1nc(-c3cnn(C)c3)nc21` [Example 938] are 4.23e-07 M and 5550 nM.
As to `Cc1ccc2nc(N[C@@H]3CCCCNC3=O)n3nc(-c4cnn(C)c4)nc3c2c1C(F)F` [Example 404, (3R)-3-{[10-(difluoromethyl)-9-methyl-2-(1-methyl-1H-pyrazol-4-yl)[1,2,4]triazolo[1,5-c]quinazolin-5-yl]amino}azepan-2-one], the IC50 stood at 3.39e-06 M against AHR [1] and 2760 nM on AHR [2] (setting [3]).
The like results for `COc1ccc(-c2nc3c4ccccc4nc(N[C@@H]4CCCCNC4=O)n3n2)cc1F` [Example 635, (3R)-3-{[2-(3-fluoro-4-methoxyphenyl)[1,2,4]triazolo[1,5-c]quinazolin-5-yl]amino}azepan-2-one] were, in that order, 9.49e-10 M and 1.1 nM.
The corresponding values for `O=C1NCCCC[C@@H]1Nc1nc2ccccc2c2nc(-c3ccc(Cl)cc3OC(F)F)nn12` [Example 526, (3S)-3-({2-[4-chloro-2-(difluoromethoxy)phenyl][1,2,4]triazolo[1,5-c]quinazolin-5-yl}amino)azepan-2-one] are 1.47e-08 M and 2.33 nM.
